Assay results taken from patent US9365522B2, “Pyrazole amide derivative” (AMGEN INC., priority 2015, dated 2016).

Molecular target: T1, ligand binding domain of human ROR gamma (Homo sapiens, UniProt P51449)
T1 construct: NM_001001523; expressed in transfected cells; host or cells: HEK293T
T1 sequence (P51449 247-497 isoform P51449-2): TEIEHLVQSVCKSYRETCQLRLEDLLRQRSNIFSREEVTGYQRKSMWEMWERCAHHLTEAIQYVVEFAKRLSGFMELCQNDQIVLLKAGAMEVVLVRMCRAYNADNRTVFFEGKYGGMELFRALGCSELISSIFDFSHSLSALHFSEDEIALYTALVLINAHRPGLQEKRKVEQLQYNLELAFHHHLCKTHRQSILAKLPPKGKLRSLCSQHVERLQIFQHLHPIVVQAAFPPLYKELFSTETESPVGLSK
Test: ROR gamma reporter gene assay (GAL4-RORγ LBD luciferase, Dual-Glo)
Assay type: cell-based
Conditions: HEK293T cells transfected with pM-ROR gamma, 8 concentrations 3.5 nM to 10.5 μM, 24 h incubation; read-out: result (pIC50, inhibition of RORγ transcriptional activity) (converted)
In short: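 HEK293T cells co-transfected with GAL4-DBD fused to human RORγ LBD (aa 247-497), 5×UAS firefly luciferase reporter and CMV-renilla, in charcoal-stripped serum.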

IC50 [pM]	Structure (SMILES)
77600	CC1(CN(CC(=O)c2c(Cl)cncc2Cl)C(=O)c2cnn([C@H]3CC[C@H](C(=O)O)CC3)c2C(F)(F)F)CC1 [Example 31, trans-4-(4-((2-(3,5-dichloropyridin-4-yl)-2-oxoethyl)((1-methylcyclopropyl)methyl)carbamoyl)-5-(trifluorornethyl)-1H-pyrazol-1-yl)cyclohexanecarboxylic acid]
1.15e+06	CC(C)(C)S(=O)(=O)CCN(CC(=O)c1c(Cl)cc(F)cc1Cl)C(=O)c1cnn([C@H]2CC[C@](C)(C(=O)O)CC2)c1C(F)(F)F [Example 350, trans-4-(4-(2-tert-butylsulfonylethyl-(2-(2,6-dichloro-4-fluorophenyl)-2-oxoethyl)carbamoyl)-5-(trifluoromethyl)pyrazol-1-yl)-1-methylcyclohexane-1-carboxylic acid]
123000	CC(C)[C@@H]1C[C@@H]1N(CC(=O)c1c(Cl)cncc1Cl)C(=O)c1cnn([C@H]2CC[C@](C)(C(=O)O)CC2)c1C(F)(F)F [Example 340, trans-4-(4-((2-(3,5-dichloropyridin-4-yl)-2-oxoethyl)-((1S,2S)-2-propan-2-ylcyclopropyl)carbamoyl)-5-(trifluoromethyl)pyrazol-1-yl)-1-methylcyclohexane-1-carboxylic acid]
7.24e+06	CC(C)(C)[S+]([O-])CCN(CC(=O)c1c(Cl)cc(F)cc1Cl)C(=O)c1cnn([C@H]2CC[C@](C)(C(=O)O)CC2)c1C(F)(F)F (stereo partly drawn) [Example 351, trans-4-(4-(2-tert-butylsulfinylethyl-(2-(2,6-dichloro-4-fluorophenyl)-2-oxoethyl)carbamoyl)-5-(trifluoromethyl)pyrazol-1-yl)-1-methylcyclohexane-1-carboxylic acid]
661000	O=C(CN(Cc1ccc(F)cc1)C(=O)c1cnn([C@H]2CC[C@@](F)(C(=O)O)CC2)c1C(F)(F)F)c1c(Cl)cncc1Cl [Example 80, trans-4-(4-((2-(3,5-dichloropyridin-4-yl)-2-oxoethyl)(4-fluorobenzyl)carbamoyl)-5-(trifluoromethyl)-1H-pyrazol-1-yl)-1-fluorocyclohexanecarboxylic acid]
> 1e+07	O=C(CN(C(=O)c1cnn([C@H]2CC[C@H](C(=O)O)CC2)c1C(F)(F)F)C1CCOC1)c1c(Cl)cncc1Cl (stereo partly drawn) [Example 198, trans-4-(4-((2-(3,5-dichloropyridin-4-yl)-2-oxoethyl)-(oxolan3-yl)carbamoyl)-5-(trifluoromethyl)pyrazol-1-yl)cyclohexane-1-carboxylic acid]
2.29e+06	C[C@H](N(CC(=O)c1c(Cl)cncc1Cl)C(=O)c1cnn([C@H]2CC[C@H](C(=O)O)CC2)c1C(F)(F)F)C(C)(C)C [Example 114, trans-4-(4-((2-(3,5-dichloropyridin-4-yl)-2-oxoethyl)-((2S)-3,3-dimethylbutan-2-yl)carbamoyl)-5-(trifluoromethyl)pyrazol-1-yl)cyclohexane-1-carboxylic acid]
141000	C[S+](=O)([O-])[C@H]1CC[C@H](n2ncc(C(=O)N(CC(=O)c3c(Cl)cncc3Cl)Cc3ccc(F)cc3)c2C(F)(F)F)CC1 [Example 87, N-(2-(3,5-dichloropyridin-4-yl)-2-oxoethyl)-N-(4-fluorobenzyl)-1-(trans-4-(methylsulfonyl)cyclohexyl)-5-(trifluoromethyl)-1H-pyrazole-4-carboxamide]
135000	N#Cc1cc(Cl)c(C(=O)CN(Cc2cc(F)cc(F)c2)C(=O)c2cnn([C@H]3CC[C@H](C(=O)O)CC3)c2C(F)(F)F)c(Cl)c1 [Example 58, trans-4-(4-((2-(2,6-dichloro-4-cyanophenyl)-2-oxoethyl)(3,5-difluorobenzyl)carbamoyl)-5-(trifluorornethyl)-1H-pyrazol-1-yl)cyclohexanecarboxylic acid]
91200	CCC(F)(CC)CN(CC(=O)c1c(Cl)cncc1Cl)C(=O)c1cnn([C@H]2CC[C@](C)(C(=O)O)CC2)c1Cl [Example 395, trans-4-(5-chloro-4-((2-(3,5-dichloropyridin-4-yl)-2-oxoethyl)-(2-ethyl-2-fluorobutyl)carbamoyl)pyrazol-1-yl)-1-methylcyclohexane-1-carboxylic acid]
14100	CC1(C)CCC(N(CC(=O)c2c(Cl)cc(F)cc2Cl)C(=O)c2cnn(C34CCC(C(=O)O)(CC3)CC4)c2C(F)F)CC1 [Example 273, 4-(4-((2-(2,6-dichloro-4-fluorophenyl)-2-oxoethyl)-(4,4-dimethylcyclohexyl)carbamoyl)-5-(difluoromethyl)pyrazol-1-yl)bicyclo[2.2.2]octane-1-carboxylic acid]
> 1e+07	CC(C)(C)C(=O)N1CC(N(CC(=O)c2c(Cl)cncc2Cl)C(=O)c2cnn([C@H]3CC[C@H](C(=O)O)CC3)c2C(F)(F)F)C1 [Example 173, trans-4-(4-((2-(3,5-dichloropyridin-4-yl)-2-oxoethyl)-(1-(2,2-dimethylpropanoyl)azetidin-3-yl)carbamoyl)-5-(trifluoromethyl)pyrazol-1-yl)cyclohexane-1-carboxylic acid]
107000	COc1cccc(Cl)c1[C@H](O)CN(C(=O)c1cnn([C@H]2CC[C@](C)(C(=O)O)CC2)c1Cl)[C@H]1C[C@@H]2[C@H](C1)C2(C)C [Example 375, trans-4-(5-chloro-4-((2-(2-chloro-6-methoxyphenyl)-2-hydroxyethyl)((1R,3r,5S)-6,6-dimethylbicydo[3.1.0]hexan-3-yl)carbamoyl)-1H-pyrazol-1-yl)-1-methylcyclohexanecarboxylic acid]
1.02e+06	CC1(C#N)CCC(N(CC(=O)c2c(Cl)cncc2Cl)C(=O)c2cnn([C@H]3CC[C@H](C(=O)O)CC3)c2C(F)(F)F)C1 (stereo partly drawn) [Example 210, trans-4-(4-((3-cyano-3-methylcyclopentyl)-(2-(3,5-dichloropyridin-4-yl)-2-oxoethyl)carbamoyl)-5-(trifluoromethyl)pyrazol-1-yl)cyclohexane-1-carboxylic acid]
209000	O=C(CN(Cc1cc(F)cc(F)c1)C(=O)c1cnn([C@H]2CC[C@H](C(=O)NO)CC2)c1C(F)(F)F)c1c(Cl)cncc1Cl [Example 5, N-(2-(3,5-dichloropyridin-4-yl)-2-oxoethyl)-N-(3,5-difluorobenzyl)-1-(trans-4-(hydroxycarbamoyl)cyclohexyl)-5-(trifluoromethyl)-1H-pyrazole-4-carboxamide]
40700	Cc1cncc(Cl)c1C(=O)CN(Cc1cc(F)cc(F)c1)C(=O)c1cnn([C@H]2CC[C@H](C(=O)O)CC2)c1C(F)(F)F [Example 49, trans-4-(4-((2-(3-chloro-5-methylpyridin-4-yl)-2-oxoethyl)(3,5-difluorobenzyl)carbamoyl)-5-(trifluoromethyl)-1H-pyrazol-1-yl)cyclohexanecarboxylic acid]
93300	C[C@]1(C(=O)O)CC[C@H](n2ncc(C(=O)N(CC(=O)c3c(Cl)cc(Cl)cc3Cl)C3CCC4(CC3)COC4)c2C(F)(F)F)CC1 [Example 289, trans-1-methyl-4-(4-(2-oxaspiro[3.5]nonan-7-yl-(2-oxo-2-(2,4,6-trichlorophenyl)ethyl)carbamoyl)-5-(trifluoromethyl)pyrazol-1-yl)cyclohexane-1-carboxylic acid]
166000	O=C(O)C1CCC(n2ncc(C(=O)N(CCc3c(Cl)cncc3Cl)Cc3ccc(F)cc3)c2C(F)(F)F)CC1 (stereo not shown) [Example 24, 4-(4-((2-(3,5-dichloropyridin-4-yl)ethyl)(4-fluorobenzyl)carbamoyl)-5-(trifluoromethyl)-1H-pyrazol-1-yl)cyclohexanecarboxylic acid]
> 1e+07	Cc1csc(C)c1C(=O)CN(Cc1cc(F)cc(F)c1)C(=O)c1cnn([C@H]2CC[C@H](C(=O)O)CC2)c1C(F)(F)F [Example 3, trans-4-(4-((3,5-difluorobenzyl)(2-(2,4-dimethylthiophen-3-yl)-2-oxoethyl)carbamoyl)-5-(trifluoromethyl)-1H-pyrazol-1-yl)cyclohexanecarboxylic acid]
> 1e+07	N#C[C@]1(C(=O)O)CC[C@@H](n2ncc(C(=O)N(CC(=O)c3c(Cl)cncc3Cl)Cc3ccc(F)cc3)c2C(F)(F)F)CC1 [Example 128, trans-4-(4-((2-(3,5-dichloropyridin-4-yl)-2-oxoethyl)-((4-fluorophenyl)methyl)carbamoyl)-5-(trifluoromethyl)pyrazol-1-yl)-1-cyanocyclohexane-1-carboxylic acid]
1.51e+06	COc1cncc(OC)c1C(=O)CN(Cc1cc(F)cc(F)c1)C(=O)c1cnn([C@H]2CC[C@H](C(=O)O)CC2)c1C(F)(F)F [Example 119, trans-4-(4-((3,5-difluorophenyl)methyl-(2-(3,5-dimethoxypyridin-4-yl)-2-oxoethyl)carbamoyl)-5-(trifluoromethyl)pyrazol-1-yl)cyclohexane-1-carboxylic acid]
7240	C[C@]1(C(=O)O)CC[C@H](n2ncc(C(=O)N(Cc3cc(F)cc(F)c3)C[C@H](F)c3c(Cl)cccc3Cl)c2C(F)(F)F)CC1 [Example 138, trans-4-(4-(((2R)-2-(2,6-dichlorophenyl)-2-fluoroethyl)-((3,5-difluorophenyl)methyl)carbamoyl)-5-(trifluoromethyl)pyrazol-1-yl)-1-methylcyclohexane-1-carboxylic acid]
